Test results taken from article PMC6381276 (mBio, 2019).

Target: McpN (PA2788) chemoreceptor (Pseudomonas aeruginosa, UniProt Q9I055)
Assay: biochemical

Sequence of McpN (PA2788) chemoreceptor (Q9I055 44-179): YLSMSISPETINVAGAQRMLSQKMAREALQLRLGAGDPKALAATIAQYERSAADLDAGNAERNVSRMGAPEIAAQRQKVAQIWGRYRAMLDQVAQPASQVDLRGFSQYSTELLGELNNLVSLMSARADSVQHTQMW

O=[N+]([O-])O [nitrate]
Kd: 47 ± 8 µM
